From ChEMBL document CHEMBL1177720, “Selective hexapeptide agonists and antagonists for human complement C3a receptor” (J Med Chem, 2010) come the findings set out here.

Experiment [1] has as its target T1, C5a anaphylatoxin chemotactic receptor 1 (Homo sapiens) (UniProt P21730).
T1 sequence (whole entry): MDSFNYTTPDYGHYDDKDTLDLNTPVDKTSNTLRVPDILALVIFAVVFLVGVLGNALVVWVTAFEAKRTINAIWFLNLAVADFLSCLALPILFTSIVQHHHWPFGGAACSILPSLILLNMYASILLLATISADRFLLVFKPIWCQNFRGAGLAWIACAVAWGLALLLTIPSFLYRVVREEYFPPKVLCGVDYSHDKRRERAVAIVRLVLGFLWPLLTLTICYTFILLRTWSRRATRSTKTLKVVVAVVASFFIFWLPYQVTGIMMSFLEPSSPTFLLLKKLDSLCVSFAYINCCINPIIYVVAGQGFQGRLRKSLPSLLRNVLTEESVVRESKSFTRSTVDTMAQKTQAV
Description: Displacement of […] from C5a receptor in human PBMC at 1 mM by scintillation counting.

Experiment [2] concerns the target T2, C3a anaphylatoxin chemotactic receptor (Homo sapiens, UniProt Q16581).
T2 sequence (Q16581 whole entry): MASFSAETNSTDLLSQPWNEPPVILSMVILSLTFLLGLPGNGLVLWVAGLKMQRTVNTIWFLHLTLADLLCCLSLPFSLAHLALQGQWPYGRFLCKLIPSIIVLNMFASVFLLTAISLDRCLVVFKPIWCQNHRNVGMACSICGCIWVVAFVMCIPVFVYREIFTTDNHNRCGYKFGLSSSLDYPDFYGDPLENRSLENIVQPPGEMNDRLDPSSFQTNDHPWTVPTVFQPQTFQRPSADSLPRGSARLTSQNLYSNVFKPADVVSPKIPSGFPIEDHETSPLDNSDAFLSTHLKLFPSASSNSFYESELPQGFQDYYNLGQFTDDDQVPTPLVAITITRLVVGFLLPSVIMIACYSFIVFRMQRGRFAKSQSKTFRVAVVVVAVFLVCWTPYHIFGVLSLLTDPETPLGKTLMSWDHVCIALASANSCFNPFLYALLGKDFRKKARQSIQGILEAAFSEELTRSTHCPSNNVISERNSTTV
Description: Agonist activity at human C3a receptor in human U937 cells assessed as induction of intracellular calcium release. Conditions: read-out: EC50. The format is functional, cell-based, U-937.

Experiment [3] has as its target T2, C3a anaphylatoxin chemotactic receptor. As to the kind of experiment: Displacement of [125I-C3a] from C3a receptor in human PBMC by scintillation counting.
For experiment [4], the target named is T3, C3a anaphylatoxin chemotactic receptor (Homo sapiens) (UniProt Q16581).
T3 sequence (whole entry): T2 sequence (Q16581 whole entry)
As to the kind of experiment: Agonist activity at human C3a receptor in human U937 cells assessed as induction of intracellular calcium release at 1 mM. The format is functional, cell-based. As to conditions: U-937.

The target of experiment [5] is T3, C3a anaphylatoxin chemotactic receptor (Homo sapiens). As to the kind of experiment: Agonist activity at human C3a receptor in human U937 cells assessed as induction of intracellular calcium release at 10 uM. Format: functional, cell-based. As to conditions: U-937.

Calls of active or inactive are those of the source. No cut-off for these calls is given here. Numbered stars: 1 amine (or outer) side, 2 acyl side, 3 side chain; on linkers, the order of the positions; unused ones are H or OH. Square brackets hold non-standard residues; d marks the D form. Peptide text beside a SMILES is read from it. Orn(Me) = CN(CCC[C@H](N[*:1])C(=O)[*:2])[*:3]; Cha = N[C@@H](CC1CCCCC1)C(=O)O; Orn = NCCC[C@H](N)C(=O)O

Consider `CC[C@H](C)[C@H](NC(=O)[C@@H](N)Cc1ccccc1)C(=O)N1CCC[C@H]1C(=O)N[C@@H](CC(C)C)C(=O)N[C@@H](C)C(=O)N[C@@H](CCCNC(=N)N)C(=O)O` (H-FIPLAR-OH), for which the result in experiment [1] was inactive. The EC50 in experiment [2] amounted to 950 nM. Further, the results for the IC50 in experiment [3] (read-out: IC50) and in experiment [3] (read-out: pIC50 (converted)) were 0.18 nM and 229 nM, respectively.

As for `CC(C)C[C@H](NC(=O)[C@H](Cc1ccccc1)NC(=O)[C@H](CCCCN)NC(=O)[C@@H](N)Cc1ccccc1)C(=O)N[C@@H](C)C(=O)N[C@@H](CCCNC(=N)N)C(=O)O` (H-FKFLAR-OH), in experiment [4], the outcome was inactive.

Consider `C[C@H](NC(=O)[C@H](Cc1ccccc1)NC(=O)[C@@H]1CCCN1C(=O)[C@H](CCCCN)NC(=O)[C@@H](N)Cc1ccccc1)C(=O)N[C@@H](CCCNC(=N)N)C(=O)O` (H-FKPFAR-OH), for which the result in experiment [4] was inactive.

Consider `CC(C)C[C@H](NC(=O)[C@@H]1CCCN1C(=O)[C@H](CCCCN)NC(=O)[C@@H](N)Cc1ccccc1)C(=O)N[C@@H](Cc1ccccc1)C(=O)N[C@@H](CCCNC(=N)N)C(=O)O` (H-FKPLFR-OH), for which, in experiment [4], the result was inactive.

With `CC(C)C[C@H](NC(=O)[C@@H]1CCCN1C(=O)[C@H](CCCCN)NC(=O)[C@@H](N)Cc1ccccc1)C(=O)N[C@@H](CC1CCCCC1)C(=O)N[C@@H](CCCNC(=N)N)C(=O)O` (H-FKPL[Cha]R-OH), the outcome in experiment [4] was inactive.

Consider `C[C@H](NC(=O)[C@H](Cc1c[nH]c2ccccc12)NC(=O)[C@@H]1CCCN1C(=O)[C@H](CCCCN)NC(=O)[C@@H](N)Cc1ccccc1)C(=O)N[C@@H](CCCNC(=N)N)C(=O)O` (H-FKPWAR-OH), for which, in experiment [4], the result was inactive.

Turning to `C[C@H](NC(=O)[C@H](CC1CCCCC1)NC(=O)[C@@H]1CCCN1C(=O)[C@H](CCCCN)NC(=O)[C@@H](N)Cc1ccccc1)C(=O)N[C@@H](CCCNC(=N)N)C(=O)O` (H-FKP[Cha]AR-OH), the result in experiment [4] was inactive.

With `CC(C)C[C@H](NC(=O)CNC(=O)[C@H](CC(C)C)NC(=O)[C@@H](N)Cc1ccccc1)C(=O)N[C@@H](C)C(=O)N[C@@H](CCCNC(=N)N)C(=O)O` (H-FLGLAR-OH), in experiment [1], the outcome was inactive. In addition, the EC50 in experiment [2] came out at 520 nM. In addition, the IC50 in experiment [3] (read-out: IC50) came out at 157 nM.

For the compound `CC[C@H](C)[C@H](NC(=O)[C@@H](NC(=O)[C@H](CC(C)C)NC(=O)[C@@H](N)Cc1ccccc1)[C@@H](C)O)C(=O)N[C@@H](C)C(=O)N[C@@H](CCCNC(=N)N)C(=O)O` (H-FLTIAR-OH), the outcome in experiment [4] was inactive.

With `CC(C)C[C@H](NC(=O)[C@@H](NC(=O)[C@H](CC(C)C)NC(=O)[C@@H](N)Cc1ccccc1)[C@@H](C)O)C(=O)N[C@@H](C)C(=O)N[C@@H](CCCNC(=N)N)C(=O)O` (H-FLTLAR-OH), the result in experiment [1] was inactive. For the same compound, the EC50 in experiment [2] is 320 nM. Also, in experiment [3] (read-out: IC50), the IC50 was 42 nM.

Take `CC(C)C[C@H](NC(=O)[C@H](CC(C)C)NC(=O)[C@@H](NC(=O)[C@H](CC(C)C)NC(=O)[C@@H](N)Cc1ccccc1)[C@@H](C)O)C(=O)N[C@@H](CCCNC(=N)N)C(=O)O` (H-FLTLLR-OH): the outcome in experiment [4] was inactive.

For `CC(C)C[C@H](NC(=O)[C@@H](N)Cc1ccccc1)C(=O)N[C@H](C(=O)N[C@@H](CO)C(=O)N[C@@H](C)C(=O)N[C@@H](CCCNC(=N)N)C(=O)O)[C@@H](C)O` (H-FLTSAR-OH), the outcome in experiment [1] and in experiment [4] was inactive. Also, the IC50 in experiment [3] (read-out: IC50) was found to be 8200 nM.

For the compound `CC(C)C[C@H](NC(=O)[C@@H]1CCCN1C(=O)[C@H](CCCNC(=N)N)NC(=O)[C@@H](N)Cc1ccccc1)C(=O)N[C@@H](C)C(=O)N[C@@H](CCCNC(=N)N)C(=O)O` (H-FRPLAR-OH), the result in experiment [4] was inactive.

Regarding `CC(C)C[C@H](NC(=O)[C@@H]1CCCN1C(=O)[C@H](Cc1c[nH]c2ccccc12)NC(=O)[C@@H](N)Cc1ccccc1)C(=O)N[C@@H](C)C(=O)N[C@@H](CCCNC(=N)N)C(=O)O` (H-FWPLAR-OH), the result in experiment [1] was inactive. For the same compound, the EC50 in experiment [2] worked out at 580 nM. Besides, the IC50 in experiment [3] (read-out: IC50) stood at 274 nM.

As for `CC(C)C[C@H](NC(=O)[C@@H](NC(=O)[C@H](Cc1c[nH]c2ccccc12)NC(=O)[C@@H](N)Cc1ccccc1)[C@@H](C)O)C(=O)N[C@@H](C)C(=O)N[C@@H](CCCNC(=N)N)C(=O)O` (H-FWTLAR-OH), the result in experiment [1] was inactive. Moreover, the EC50 in experiment [2] was 370 nM. Also, the IC50 in experiment [3] (read-out: IC50) came to 82 nM.

Take `CC(C)C[C@H](NC(=O)[C@@H](NC(=O)[C@H](Cc1ccc(O)cc1)NC(=O)[C@@H](N)Cc1ccccc1)[C@@H](C)O)C(=O)N[C@@H](C)C(=O)N[C@@H](CCCNC(=N)N)C(=O)O` (H-FYTLAR-OH): the outcome in experiment [1] was inactive. In experiment [2], the EC50 is 4800 nM. Further, the IC50 in experiment [3] (read-out: IC50) is 166 nM.

On to `CNCCC[C@H](NC(=O)[C@@H](N)Cc1ccccc1)C(=O)N[C@H](C(=O)N[C@@H](CC(C)C)C(=O)N[C@@H](C)C(=O)N[C@@H](CCCNC(=N)N)C(=O)O)[C@@H](C)O` (H-F[Orn(Me)]TLAR-OH), for which, in experiment [4], the result was inactive.

For the compound `CC(C)C[C@H](NC(=O)[C@@H]1CCCN1C(=O)[C@H](CCCN)NC(=O)[C@@H](N)Cc1ccccc1)C(=O)N[C@@H](C)C(=O)N[C@@H](CCCNC(=N)N)C(=O)O` (H-F[Orn]PLAR-OH), the result in experiment [4] was inactive.

`CC(C)C[C@H](NC(=O)[C@@H]1CCCN1C(=O)[C@H](CCCCN)NC(=O)[C@@H](N)Cc1cnc[nH]1)C(=O)N[C@@H](C)C(=O)N[C@@H](CCCNC(=N)N)C(=O)O` (H-HKPLAR-OH): in experiment [4], the outcome was inactive.

As to `CC(C)C[C@H](NC(=O)[C@H](C)NC(=O)[C@H](CC(C)C)NC(=O)[C@@H](N)Cc1cnc[nH]1)C(=O)N[C@@H](C)C(=O)N[C@@H](CCCNC(=N)N)C(=O)O` (H-HLALAR-OH), the outcome in experiment [1], in experiment [5] and in experiment [4] was inactive. Moreover, the IC50 in experiment [3] (read-out: IC50) is 6300 nM.

Turning to `CC(C)C[C@H](NC(=O)CNC(=O)[C@H](CC(C)C)NC(=O)[C@@H](N)Cc1cnc[nH]1)C(=O)N[C@@H](C)C(=O)N[C@@H](CCCNC(=N)N)C(=O)O` (H-HLGLAR-OH), the outcome in experiment [1] was inactive. Moreover, the EC50 in experiment [2] was found to be 3800 nM. In addition, the IC50 in experiment [3] (read-out: IC50) amounted to 5900 nM.

As for `CC(C)C[C@H](NC(=O)[C@@H](NC(=O)[C@H](CC(C)C)NC(=O)[C@@H](N)CCCNC(=N)N)[C@@H](C)O)C(=O)N[C@@H](C)C(=O)N[C@@H](CCCNC(=N)N)C(=O)O` (H-RLTLAR-OH), in experiment [4], the outcome was inactive.

On to `CC(C)C[C@H](NC(=O)[C@@H]1CCCN1C(=O)[C@H](CCCCN)NC(=O)[C@@H](N)Cc1c[nH]c2ccccc12)C(=O)N[C@@H](C)C(=O)N[C@@H](CCCNC(=N)N)C(=O)O` (H-WKPLAR-OH), for which the outcome in experiment [4] was inactive.

On to `CC(C)C[C@H](NC(=O)CNC(=O)[C@H](CC(C)C)NC(=O)[C@H](CCCCN)NC(=O)[C@H](CO)NC(=O)[C@H](C)NC(=O)[C@H](CCCN=C(N)N)NC(=O)[C@H](Cc1ccc(O)cc1)NC(=O)[C@H](CCCCN)NC(=O)[C@H](CCCCN)NC(=O)CNC(=O)[C@H](Cc1c[nH]c2ccccc12)NC(=O)[C@@H](N)Cc1c[nH]c2ccccc12)C(=O)N[C@@H](C)C(=O)N[C@@H](CCCN=C(N)N)C(=O)O` (H-WWGKKYRASKLGLAR-OH), for which the EC50 in experiment [2] stood at 1300 nM. The IC50 in experiment [3] (read-out: IC50) stood at 2 nM.

Consider `CC(C)C[C@H](NC(=O)CNC(=O)[C@H](CC(C)C)NC(=O)[C@H](CCCCN)NC(=O)[C@H](CO)NC(=O)[C@H](C)NC(=O)[C@H](CCCNC(=N)N)NC(=O)[C@H](Cc1ccc(O)cc1)NC(=O)[C@H](CCCCN)NC(=O)[C@H](CCCCN)NC(=O)CNC(=O)[C@H](Cc1c[nH]c2ccccc12)NC(=O)[C@@H](N)Cc1c[nH]c2ccccc12)C(=O)N[C@@H](C)C(=O)N[C@@H](CCCNC(=N)N)C(=O)O` (H-WWGKKYRASKLGLAR-OH), for which the result in experiment [1] was inactive.

On to `CC(C)C[C@H](NC(=O)[C@@H](NC(=O)[C@H](Cc1c[nH]c2ccccc12)NC(=O)[C@@H](N)Cc1c[nH]c2ccccc12)[C@@H](C)O)C(=O)N[C@@H](C)C(=O)N[C@@H](CCCNC(=N)N)C(=O)O` (H-WWTLAR-OH), for which, in experiment [1], the result was inactive. Moreover, the concentration giving a half-maximal response (EC50) in experiment [2] worked out at 910 nM. The IC50 in experiment [3] (read-out: IC50) was 244 nM.

As to `CC(C)C[C@H](NC(=O)[C@@H]1CCCN1C(=O)[C@H](CCCCN)NC(=O)[C@@H](N)CC1CCCCC1)C(=O)N[C@@H](C)C(=O)N[C@@H](CCCNC(=N)N)C(=O)O` (H-[Cha]KPLAR-OH), in experiment [4], the result was inactive.
